From patent US9345706B2, “Benzoxazole kinase inhibitors and methods of use” (Intellikine LLC, priority 2008, dated 2016)

Columns and labels:
xenograft tumors = assay: Tumor volume of xenograft tumors in female nude athymic mice; format: in vivo, mouse; conditions: U87-MG, A549, ZR-75-1, or 786-0 tumor cells
Protocol: For example, treatment with one or more compounds of the invention results in a reduction in the growth or tumor volume caused by engraftment of U87-MG, A549, ZR-75-1, or 786-0 tumor cells in nude mice. The compounds of the invention may be administered orally, subcutaneously, or intravenously, or any other compound administration methods provided herein. In some cases, the compounds are administered once a week, every other day, once a day, twice a day, three times a day, four times a day or more. In some cases, 0.01 mg/kg of compound is administered, 0.05 mg/kg, 0.1 mg/kg, 0.2 mg/kg, 0.4 mg/kg, 0.5 mg/kg, 1 mg/kg, 1.5 mg/kg, 2 mg/kg, 3 mg/kg, 4 mg/kg, 5 mg/kg, 7.5 mg/kg, 10 mg/kg, 100 mg/kg or more compound is administered at a time. In some cases, a significant reduction in tumor volume may be detected within 5, 10, 15, 20, 25, or 30 days of tumor engraftment.
Mice are inoculated subcutaneously in the right flank with 0.01 to 0.5 ml of tumor cells such as those listed above (approximately 1.0×10^5 to 1.0×10^8 cells/mouse). Five to 10 days following inoculation, tumors are measured using calipers and tumor weight is calculated, for example using the animal study management software, such as Study Director V.1.6.70 (Study Log). […] Body weights are recorded when the mice are pair-matched. […]

[1] = tested on: HCT116 cells or SW620 cells; assay: Cell cycle progression, G0/G1 arrest; format: cell-based; conditions: compared to an inhibitor that inhibits one or more PI3-kinases
Protocol: FIG. 9A-9B depict the effects of a compound of Table 1 of the present invention on cell cycle progression in HCT116 and SW620 cells as compared to various other compounds. FIG. 9A depicts the inhibiting effect of the compound at 500 nM on cell cycle progression as compared to DMSO vehicle control and as compared to 10 uM doxorubicin. FIG. 9B depicts the effect of the indicated compounds on the population of cells residing in G0/G1 phase during culture for two different cell lines.
In some embodiments, one or more compounds of the invention including those in Table 1 may cause cell cycle arrest. […] In some cases, about 35%, 40%, 50%, 55%, 60%, 65%, 70% or more of cells treated with one or more compounds of the invention may be in the G0/G1 cell cycle stage.

PI3K α = molecular target: T1, PI3K α (Homo sapiens, UniProt P42336); assay: PI3K α kinase inhibition assay; format: biochemical
T1 construct: purchased Upstate
T1 sequence (P42336 whole entry): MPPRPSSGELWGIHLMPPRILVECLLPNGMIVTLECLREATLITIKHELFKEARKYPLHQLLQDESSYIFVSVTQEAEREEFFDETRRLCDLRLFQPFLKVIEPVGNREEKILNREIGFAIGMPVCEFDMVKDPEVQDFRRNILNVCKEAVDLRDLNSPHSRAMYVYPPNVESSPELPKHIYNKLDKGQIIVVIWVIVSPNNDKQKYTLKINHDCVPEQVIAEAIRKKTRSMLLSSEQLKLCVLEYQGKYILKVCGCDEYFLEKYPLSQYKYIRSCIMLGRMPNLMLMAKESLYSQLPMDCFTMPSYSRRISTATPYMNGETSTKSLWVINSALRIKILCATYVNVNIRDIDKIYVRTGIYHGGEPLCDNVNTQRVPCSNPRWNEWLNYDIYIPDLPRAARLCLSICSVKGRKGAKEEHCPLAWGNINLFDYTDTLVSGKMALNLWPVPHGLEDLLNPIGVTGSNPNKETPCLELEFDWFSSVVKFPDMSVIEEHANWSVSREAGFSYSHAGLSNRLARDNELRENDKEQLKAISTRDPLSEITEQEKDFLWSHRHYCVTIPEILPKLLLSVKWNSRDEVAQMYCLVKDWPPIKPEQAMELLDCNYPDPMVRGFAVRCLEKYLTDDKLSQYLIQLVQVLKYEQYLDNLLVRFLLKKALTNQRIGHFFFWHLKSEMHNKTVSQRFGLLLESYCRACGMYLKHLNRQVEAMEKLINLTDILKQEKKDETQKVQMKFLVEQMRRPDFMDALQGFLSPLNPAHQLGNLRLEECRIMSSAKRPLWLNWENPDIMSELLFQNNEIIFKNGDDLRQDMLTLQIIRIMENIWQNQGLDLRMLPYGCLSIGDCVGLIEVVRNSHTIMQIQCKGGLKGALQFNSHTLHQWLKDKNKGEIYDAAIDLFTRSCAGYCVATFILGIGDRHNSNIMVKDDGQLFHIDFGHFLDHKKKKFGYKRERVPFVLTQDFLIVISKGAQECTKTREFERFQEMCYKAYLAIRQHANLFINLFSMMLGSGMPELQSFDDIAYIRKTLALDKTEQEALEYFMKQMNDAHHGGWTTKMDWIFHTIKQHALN
T1 sequence (P27986 whole entry partner): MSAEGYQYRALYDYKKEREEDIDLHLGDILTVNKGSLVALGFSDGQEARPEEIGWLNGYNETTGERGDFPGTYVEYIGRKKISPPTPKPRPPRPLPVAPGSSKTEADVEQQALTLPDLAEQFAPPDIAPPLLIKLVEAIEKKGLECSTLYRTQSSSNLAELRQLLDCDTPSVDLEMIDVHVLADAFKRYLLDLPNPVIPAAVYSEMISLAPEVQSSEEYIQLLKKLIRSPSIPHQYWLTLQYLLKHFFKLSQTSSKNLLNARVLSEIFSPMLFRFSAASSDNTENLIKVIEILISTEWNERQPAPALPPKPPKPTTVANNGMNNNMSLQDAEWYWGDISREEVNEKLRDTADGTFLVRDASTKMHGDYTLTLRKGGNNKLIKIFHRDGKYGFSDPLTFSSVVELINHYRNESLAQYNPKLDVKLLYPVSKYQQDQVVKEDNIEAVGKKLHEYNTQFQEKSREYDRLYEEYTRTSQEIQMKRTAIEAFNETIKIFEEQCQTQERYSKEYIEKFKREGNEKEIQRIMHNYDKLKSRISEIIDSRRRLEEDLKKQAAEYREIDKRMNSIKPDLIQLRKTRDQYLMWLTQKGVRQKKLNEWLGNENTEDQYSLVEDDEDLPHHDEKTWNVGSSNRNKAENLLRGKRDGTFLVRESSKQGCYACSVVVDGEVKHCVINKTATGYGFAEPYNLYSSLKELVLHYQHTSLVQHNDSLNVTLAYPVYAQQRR

Row | SMILES | tumor volume of xenograft tumors (xenograft tumors) | degree of G0/G1 arrest [1] | IC50 (PI3K α)
1 | CC(C)n1nc(-c2ccc3oc(N)nc3c2)c2c(N)ncnc21 [compound 1] | cause a reduction in tumor volume of xenograft tumors | comparable or a greater degree of G0/G1 arrest | –
2 | COC(=O)Nc1noc2ccc(-c3nn(C(C)C)c4ncnc(N)c34)cc12 [compound 19] | – | – | > 10 µM
3 | COC(=O)Nc1noc2cc(-c3nn(C(C)C)c4ncnc(N)c34)ccc12 [compound 20] | – | – | < 10 µM
